Molecular target: FLAGELLIN-SENSING 2 (FLS2) (Arabidopsis thaliana, UniProt Q9FL28)
Assay: microscale thermophoresis
Type: binding

FLAGELLIN-SENSING 2 (FLS2), sequence (Q9FL28 24-804): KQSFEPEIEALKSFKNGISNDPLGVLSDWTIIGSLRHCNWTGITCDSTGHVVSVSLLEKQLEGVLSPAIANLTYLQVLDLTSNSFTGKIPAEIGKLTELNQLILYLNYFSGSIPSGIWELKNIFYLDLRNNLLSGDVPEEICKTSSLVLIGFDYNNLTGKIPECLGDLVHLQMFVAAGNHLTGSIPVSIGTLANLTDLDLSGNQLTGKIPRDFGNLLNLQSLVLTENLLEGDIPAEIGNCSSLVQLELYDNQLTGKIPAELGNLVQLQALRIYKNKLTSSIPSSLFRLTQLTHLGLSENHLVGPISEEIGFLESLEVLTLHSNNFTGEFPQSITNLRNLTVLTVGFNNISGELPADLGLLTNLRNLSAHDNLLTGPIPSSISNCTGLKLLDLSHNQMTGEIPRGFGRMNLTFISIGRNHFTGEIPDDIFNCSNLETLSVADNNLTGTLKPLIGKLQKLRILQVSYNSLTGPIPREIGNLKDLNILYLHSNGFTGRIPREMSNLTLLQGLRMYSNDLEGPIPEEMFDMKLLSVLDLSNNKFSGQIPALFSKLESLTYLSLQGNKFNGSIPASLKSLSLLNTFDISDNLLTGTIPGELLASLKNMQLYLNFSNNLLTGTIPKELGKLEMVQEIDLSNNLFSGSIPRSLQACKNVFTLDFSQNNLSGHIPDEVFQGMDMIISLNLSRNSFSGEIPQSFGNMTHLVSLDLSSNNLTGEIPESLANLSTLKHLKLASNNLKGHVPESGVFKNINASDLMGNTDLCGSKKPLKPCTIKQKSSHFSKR

## C=C(C)COc1ccc2c(C)c(CC(=O)N3CCN(CC(=O)NCCN(C)C)CC3)c(=O)oc2c1C [FIC04]
  Kd: 93.9 ± 19.5 µM

Source: publication PMC11557590 (Nature Communications, 2024)
